Patent publication US12043644B2, “Benzimidazole derivatives, preparation method thereof and use thereof as anti-cancer agent or anti-virus agent comprising the same” (BIOMETRIX TECHNOLOGY INC, priority 2020, dated 2024)

Experiments:
[1] = tested on: human lung cancer cell line A549, cervical cancer cell line Hela, and colorectal cancer cell line HT-29; assay: Cancer cell line growth inhibition test (WST-8 cell viability); assay type: cell-based; settings: grade evaluated in comparison with doxorubicin, 0-100 μm, 7 concentrations, incubated for 72 hours
Experimental: Human lung cancer cell line A549, cervical cancer cell line Hela, and colorectal cancer cell line HT-29 were furnished from Korea Cell Line Bank (KCLB, Seoul, Korea) and cultured in culture medium. In a humidified cell culture incubator containing 5% CO2 at 37° C. using DMEM, 10% culture flask, fetal bovine serum (FBS), 0.1 mM MEM non-essential amino acids (NEAA), 2 mM L-glutamine, and 1% penicillin-streptomycin were treated with trypsin every 2-3 days according to the guidelines provided by KCLB, and the cells were sub-cultured. The culture was cultured until it reached 80-90% confluence, and the cells were continuously transferred to a culture flask for a cancer cell line growth inhibition experiment. Cancer cell lines to be tested (human lung cancer cell line A549, cervical cancer cell line Hela, and colorectal cancer cell line HT-29) were seeded in about 10000 cells per well in a 96-well plate. […] After incubation, the medium was discarded and the cell viability was measured in each well using a WST-8 cell viability assay kit (Quanti-Max™, BIOMAX) according to the procedure instructed by the manufacturer. The analysis utilized the principle that the dehydrogenase in living cells decomposes tetrazolium salts to produce formazan, through which living cells were quantitatively evaluated. […]

[2] = tested on: normal lung cell line MRC-5 and the normal colon CCD-18Co cell line; assay: Toxicity test in normal cell line (WST-8 cell viability); assay type: cell-based; settings: grade evaluated in comparison with doxorubicin, MRC-5 and CCD-18Co, 0-100 μm, 7 concentrations, 72 hours
Experimental: The normal lung cell line MRC-5 and the normal colon CCD-18Co cell line were furnished from Korea Cell Line Bank (KCLB, Seoul, Korea) and cultured in culture medium. In a humidified cell culture incubator containing 5% CO2 at 37° C. using DMEM, 10% culture flask, fetal bovine serum (FBS), 0.1 mM MEM non-essential amino acids (NEAA), 2 mM L-glutamine, and 1% penicillin-streptomycin were treated with trypsin every 2-3 days according to the guidelines provided by KCLB, and the cells were sub-cultured. The culture was cultured until it reached 80-90% confluence, and the cells were continuously transferred to a culture flask for a cancer cell line growth inhibition experiment. Normal cell lines (MRC-5 and CCD-18Co) were seeded in about 10000 cells per well in a 96-well plate. After 24 hours, the three compounds shown in Table 1 below were added to each well at 7 concentrations, and incubated for 72 hours. The cell viability and analysis in the normal cell line were performed in the same manner as in Test Example 1, and the results of the toxicity test (72 hours) in the normal cell line are shown in FIG. 4.

SMILES	Cancer cell line growth inhibition test [1]	Cancer cell line growth inhibition test ([1]; listed as phenbendazole-glucose conjugate)	Normal cell line growth inhibition test [2]	Normal cell line growth inhibition test ([2]; listed as aminophenbendazole)
OC[C@H]1OC(Nc2nc3ccc(Sc4ccccc4)cc3[nH]2)[C@H](O)[C@@H](O)[C@@H]1O (stereo partly shown) [Phenhendazole-glucose conjugate, 6-(phenylthio)-1H-benzoimidazol-2-aminoglucose]	A A A	AAA	–	–
Cl.Nc1nc2ccc(Sc3ccccc3)cc2[nH]1 [Aminophenbendazole, reference compound]	–	–	A A A	AAA
